Where a name gives a salt, the structure may show the parent alone.

The conditions of series [1]: sublingual dose of 100 micrograms, human subjects; cited from earlier work.
For series [2] the following is noted: IV infusion from 0.2 mcg/kg/hr, schizophrenia patients.
Procedure: All participants were screened for inclusion and exclusion criteria. The participants were admitted to the site at screening (Day −1), the day before the infusion. Baseline assessments were performed on Day −1, as well as on the day of infusion (Day 1). The participants were on Day 1 prepared for the infusion, infused for up to 3 hours and monitored for resolution of sedation and any decreases in blood pressure or heart rate which met stopping criteria. The participants were not discharged from the research unit until three hours after resolution of any reduction in the level of arousal (e.g., RASS −1) and/or resolution of any decrease in blood pressure or heart rate meeting stopping criteria.
Participants randomized to placebo received a matching intravenous infusion of placebo solution.
Once the participant was drowsy (RASS −1), the infusion was stopped. […]
(1) Richmond Agitation Sedation Scale (RASS): The desired endpoint was how rapidly drowsiness (RASS −1) could be achieved without causing changes in heart rate or blood pressure greater than that specified by the protocol. The study also monitored how long the participant remained at that level of sedation; sedation was considered resolved when the participant was awake and spontaneously responding.
For series [3] the following is noted: human, in vivo, iv.

With `Cc1cccc([C@H](C)c2cnc[nH]2)c1C` [dexmedetomidine hydrochloride, (+) 4-(S)-[1-(2,3-dimethylphenyl)ethyl]-1H-imidazole], in series [1], the hypotension post-administration result is listed as “Hypotension was observed”. Also, the “patients in the treatment arm achieving a RASS score of at least −1” value in series [2] is given as 9 out of 10. For the same compound, the “Time to reach Cmax” value in series [3] was in the range of 15 to 105 min. Moreover, the “patients in the treatment arm with agitation reduced to a minimum (PEC score of 7 or below)” value (IV infusion, schizophrenia patients) is 9 out of 10. Under “IV route, schizophrenia”, the “subjects with >=50% reduction in PEC score” value is listed as 7 of 10.

(Values after US11559484B2, “Film formulations containing dexmedetomidine and methods of producing them” (BioXcel Therapeutics, Inc., priority 2018, dated 2023).)
